Patent EP1053246B1, “BETA-SHEET MIMETICS AND METHODS RELATING TO THE USE THEREOF” (MOLECUMETICS, LTD., priority 1998, dated 1999)
pIC50, pKi: −log10 of the molar value.

What was measured:
FVIIa and TF complex = target: T1, FVIIa and TF complex (Homo sapiens, UniProt P08709); assay: Factor VII inhibition assay (IC50, Example 4); assay type: biochemical; conditions: footnote d: IC50
T1 construct: 50 µl of 16 nM FVIIa and TF complex solution
Method: (§1) All inhibition assays of this experiment were performed at room temperature in 96 well microplates using a Bio-Rad microplate reader (Model 3550). […] This solution (2.05 mM) served as the stock solution for all the inhibition assays. The hydrolysis of chromogenic substrates was monitored at 405 nm. The reaction progress curves were recorded by reading the plates typically 90 times with 30 seconds to 2 minute intervals. The initial rate were determined by unweighted nonlinear least-squares fitting to a first order reaction in GraFit.
In the Factor VII assay, S-2288 (from Pharmacia), D-Ile-Pro-Arg-pNA was used at […] in deionized water as substrate. […] This dilution served as the first point of the inhibitor (20 µM). From this concentration point 6 more sequential dilutions were made with a dilution factor of 2. 50 µl of 16 nM FVIIa and TF complex solution and 40 µl of the inhibitor solutions were added into each well, the mixtures were incubated for 20 minutes before 10 µl of 20 mM S-2288 was added.

[1] = target: Activated Protein C (aPC) (Homo sapiens, UniProt P04070); assay: activated protein C inhibition assay (IC50, Example 4); assay type: biochemical; conditions: footnote d: IC50
Sequence of Activated Protein C (aPC) (P04070 43-197 limits assumed): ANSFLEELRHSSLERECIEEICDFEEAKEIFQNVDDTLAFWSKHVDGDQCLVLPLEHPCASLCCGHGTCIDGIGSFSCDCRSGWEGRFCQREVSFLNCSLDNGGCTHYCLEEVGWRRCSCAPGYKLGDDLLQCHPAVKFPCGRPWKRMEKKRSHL
Sequence of Activated Protein C (aPC) (P04070 212-461 limits assumed): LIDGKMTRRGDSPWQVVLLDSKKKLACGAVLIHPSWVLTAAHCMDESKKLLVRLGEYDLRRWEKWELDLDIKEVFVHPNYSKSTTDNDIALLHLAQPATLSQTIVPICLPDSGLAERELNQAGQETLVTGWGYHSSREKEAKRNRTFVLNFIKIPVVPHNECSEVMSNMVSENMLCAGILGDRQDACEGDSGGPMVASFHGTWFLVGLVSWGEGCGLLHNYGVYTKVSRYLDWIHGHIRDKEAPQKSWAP
Method: as §1
Activated Protein C (aPC): Buffer was the same as used in thrombin assay. […] Dilutions of structure (13b) were the same as in urokinase assay.

urokinase [2] = target: T2, urokinase (Homo sapiens, UniProt P00749); assay: urokinase inhibition assay (IC50, Example 4); assay type: biochemical; design: purchased Sigma; conditions: footnote d: IC50
Method: as §1
In the urokinase assay, buffer was pH 8.8 0.05 M Tris and 0.05 M NaCl in deionized water. S-2444 (from Sigma), pyroGlu-Gly-Arg-pNA at 0.5 mM in water was utilized as substrate. The same dilution procedure was used as for Factor VII and Factor X. Assay protocol is the same as for thrombin except 18.5 nM of human urokinase (from Sigma) was utilized.

Plasmin [3] = target: T3, Plasmin (Bos taurus, UniProt P06868); assay: plasmin inhibition assay (IC50, Example 4); assay type: biochemical; design: Plasmin: Buffer (see thrombin assay); conditions: footnote d: IC50
T3 sequence (P06868 104-583 limits assumed): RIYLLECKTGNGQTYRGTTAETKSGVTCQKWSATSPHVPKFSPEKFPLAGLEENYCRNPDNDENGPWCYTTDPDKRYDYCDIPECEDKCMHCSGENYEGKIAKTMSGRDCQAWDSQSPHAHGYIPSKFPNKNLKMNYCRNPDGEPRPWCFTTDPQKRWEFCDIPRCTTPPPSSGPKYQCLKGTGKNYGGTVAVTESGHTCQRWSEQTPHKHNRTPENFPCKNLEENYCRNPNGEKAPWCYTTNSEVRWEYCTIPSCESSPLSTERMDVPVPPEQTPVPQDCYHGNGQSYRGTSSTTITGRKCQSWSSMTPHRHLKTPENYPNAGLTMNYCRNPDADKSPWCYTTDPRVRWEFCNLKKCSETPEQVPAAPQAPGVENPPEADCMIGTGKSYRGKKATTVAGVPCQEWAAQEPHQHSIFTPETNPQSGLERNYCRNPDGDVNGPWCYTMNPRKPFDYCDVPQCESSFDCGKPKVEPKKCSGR
T3 sequence (P06868 584-812 limits assumed): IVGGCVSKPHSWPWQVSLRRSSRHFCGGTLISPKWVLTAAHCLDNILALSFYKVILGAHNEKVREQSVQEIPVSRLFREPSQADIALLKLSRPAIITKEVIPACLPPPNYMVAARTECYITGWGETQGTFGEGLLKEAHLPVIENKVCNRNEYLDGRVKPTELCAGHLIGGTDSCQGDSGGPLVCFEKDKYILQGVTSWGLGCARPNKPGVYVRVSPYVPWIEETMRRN
Method: as §1
For dilutions of structure (13b) (see urokinase assay).

bovine factor Xa = target: T4, bovine factor Xa (Bos taurus, UniProt P00743); assay: Factor X inhibition assay (IC50, Example 4); assay type: biochemical; conditions: footnote d: IC50; footnote e: bovine plasma; read-out: IC50 Factor X
T4 construct: bovine factor Xa (from Sigma); purchased Sigma
T4 sequence (P00743 41-180 limits assumed): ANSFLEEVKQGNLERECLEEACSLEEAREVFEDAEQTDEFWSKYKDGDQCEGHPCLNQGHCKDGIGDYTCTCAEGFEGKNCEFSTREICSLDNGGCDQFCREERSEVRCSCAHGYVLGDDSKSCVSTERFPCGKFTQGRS
T4 sequence (P00743 234-492 limits assumed): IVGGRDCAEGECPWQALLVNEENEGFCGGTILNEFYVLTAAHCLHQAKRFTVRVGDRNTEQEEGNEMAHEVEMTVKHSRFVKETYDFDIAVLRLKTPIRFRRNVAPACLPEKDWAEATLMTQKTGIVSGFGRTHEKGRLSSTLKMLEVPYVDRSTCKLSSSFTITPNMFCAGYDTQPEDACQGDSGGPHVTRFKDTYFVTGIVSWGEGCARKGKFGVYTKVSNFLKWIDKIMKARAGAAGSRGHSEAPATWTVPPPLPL
Method: as §1
In the Factor X assay, buffer and substrate are the same as used for thrombin assay. A 1:100 dilution was made into pH 8.4 Tris buffer to serve as the first point. Seven dilutions with a dilution factor of 2 were made. The assay protocol is the same as for thrombin except 25 nM of bovine factor Xa (from Sigma) in pH 8.4 Tris buffer was used instead of thrombin.

thrombin [4] = target: T5, thrombin (Bos taurus, UniProt P00735); assay: thrombin inhibition assay (IC50, Example 4); assay type: biochemical, bovine; conditions: footnote d: IC50
bovine trypsin = target: T6, bovine trypsin (Bos taurus, UniProt P00760); assay: trypsin inhibition assay (IC50, Example 4); assay type: biochemical; conditions: footnote d: IC50
T6 construct: purchased Sigma
T6 sequence (P00760 24-246): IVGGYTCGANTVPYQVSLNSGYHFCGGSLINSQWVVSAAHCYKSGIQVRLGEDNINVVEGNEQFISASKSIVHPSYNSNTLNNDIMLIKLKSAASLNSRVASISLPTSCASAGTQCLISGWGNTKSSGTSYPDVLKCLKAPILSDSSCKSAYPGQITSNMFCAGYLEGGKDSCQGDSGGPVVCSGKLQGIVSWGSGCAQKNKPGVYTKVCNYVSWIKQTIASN
Method: as §1
In the trypsin assay, pH 7.8 Tris (0.10 M Tris and 0.02 M CaCl2) was utilized as the buffer. BAPNA (from Sigma) was used at 1 mg/ml in 1% DMSO (v/v) deionized water solution as substrate. The same dilutions of structure (13b) were made as for Factor VII assay.

[5] = target: Tissue Plasminogen Activator (t-PA) (Homo sapiens, UniProt P00750); assay: t-PA inhibition assay (IC50, Example 4); assay type: biochemical; conditions: footnote d: IC50
Sequence of Tissue Plasminogen Activator (t-PA) (P00750 36-562): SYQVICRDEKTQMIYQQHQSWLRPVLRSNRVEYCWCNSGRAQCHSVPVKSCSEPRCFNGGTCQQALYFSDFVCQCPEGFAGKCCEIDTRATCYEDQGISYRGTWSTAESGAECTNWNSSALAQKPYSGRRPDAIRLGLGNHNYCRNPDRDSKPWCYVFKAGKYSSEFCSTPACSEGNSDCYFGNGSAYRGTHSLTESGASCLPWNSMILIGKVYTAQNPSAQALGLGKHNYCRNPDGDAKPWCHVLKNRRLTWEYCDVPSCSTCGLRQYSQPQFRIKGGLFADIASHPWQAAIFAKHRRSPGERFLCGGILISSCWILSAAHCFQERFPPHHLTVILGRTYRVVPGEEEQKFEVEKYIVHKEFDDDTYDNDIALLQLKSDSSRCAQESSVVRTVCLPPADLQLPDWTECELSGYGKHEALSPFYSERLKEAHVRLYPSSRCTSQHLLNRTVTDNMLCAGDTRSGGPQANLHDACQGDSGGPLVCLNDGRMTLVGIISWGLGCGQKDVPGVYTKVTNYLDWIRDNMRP
Method: as §1

thrombin [6] = target: T5, thrombin; assay: thrombin inhibition of solid phase synthesized mimetics; assay type: biochemical; conditions: assayed as mixtures of diastereomers; read-out: Ki as thrombin inhibitors (asterisk at compound number)
Method: General Procedure: The synthesis of β-strand mimetics was initiated by deprotection of Fmoc PAL resin using 25% piperidine in DMF. Following extensive washing with DMF, the resin was treated with the acid fluoride of N-Fmoc-4-aminomethylbenzoic acid, or (81), or (86) and Hunigs' base in DMF until the Kaiser test was negative. Alternatively, the Fmoc-protected thiazole- (75) or imidazole-based (77) linkers were coupled to the resin using BOP, HOBt and DIEA. In some instances Fmoc-Leu or another amino acid was attached to the resin prior to the thiazole- (75) or imidazole-based (77) linkers via the same methodology. […] Deprotection of all Fmoc-protected linkers was effected by treatment with 25% piperidine in DMF, and deprotection the Boc-protected linker (77) was effected by TMS-Cl (1 M) and phenol (3 M) in dichloromethane for 30 min. The lysinol derivative (90) was coupled to resin-bound linkers N-Fmoc-4-aminomethylbenzoic acid, (81), or (86) using PyBOP, HOBt and Hunigs' base in DMF until a negative Kaiser test was achieved. Treatment of the resin with 25% piperidine in DMF then cleaved the FMOC group. Following washing with DMF a dienoic acid was coupled to the resin-bound linkers using PyBOP, HOBt and Hunigs' base in DMF until the result of a Kaiser test was negative. […]

Factor XI = Factor XI (Homo sapiens, UniProt P03951); assay: Factor XI inhibition assay (Ki); assay type: biochemical; conditions: read-out: Ki (M) Factor XI
Sequence of Factor XI (P03951 388-625 limits assumed): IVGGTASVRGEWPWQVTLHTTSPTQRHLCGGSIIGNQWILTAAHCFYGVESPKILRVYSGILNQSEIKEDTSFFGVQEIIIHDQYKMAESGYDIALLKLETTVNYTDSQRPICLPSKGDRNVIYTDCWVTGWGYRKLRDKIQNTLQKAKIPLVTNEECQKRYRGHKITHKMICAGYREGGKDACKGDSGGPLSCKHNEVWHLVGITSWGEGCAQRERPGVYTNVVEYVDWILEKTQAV
Sequence of Factor XI (P03951 19-387 limits assumed): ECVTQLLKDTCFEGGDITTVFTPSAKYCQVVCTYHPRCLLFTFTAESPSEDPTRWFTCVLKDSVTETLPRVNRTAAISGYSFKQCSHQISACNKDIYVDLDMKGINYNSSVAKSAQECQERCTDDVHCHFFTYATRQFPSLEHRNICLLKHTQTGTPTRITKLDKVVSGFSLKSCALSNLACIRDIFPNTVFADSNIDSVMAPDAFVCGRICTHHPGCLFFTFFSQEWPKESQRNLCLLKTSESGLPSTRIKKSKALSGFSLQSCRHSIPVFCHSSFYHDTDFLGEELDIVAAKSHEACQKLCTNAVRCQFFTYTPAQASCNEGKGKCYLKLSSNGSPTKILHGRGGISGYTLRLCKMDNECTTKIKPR

urokinase [7] = target: T2, urokinase; assay: urokinase inhibition assay (Ki, Example 5); assay type: biochemical, human kidney; design: from tissue; host or cells: human kidney
Plasmin [8] = target: T3, Plasmin; assay: plasmin inhibition assay (Ki, Example 5); assay type: biochemical, bovine plasma; design: Plasmin: Buffer (see thrombin assay); from tissue; host or cells: bovine plasma; conditions: read-out: Ki (M) Plasmin
Method: (§2) The reaction progress curves were recorded by reading the plates, typically 60 times with 30 second to 2 minute intervals. Initial rates were determined by unweighted nonlinear least-squares fitting to a first order reaction in GraFit (Erithacus Software Limited, London, England).

t-PA = t-PA (Homo sapiens, UniProt P00750); assay: t-PA inhibition assay (Ki, Example 5); assay type: biochemical; conditions: tissue Plasminogen Activator; read-out: Ki (M) tPA
Sequence of t-PA (P00750 36-562): as the sequence (P00750 36-562) above
Method: as §2

factor VII = target: T7, factor VII (Homo sapiens, UniProt P08709); assay: Factor VII inhibition assay (Ki, Example 5); assay type: biochemical; conditions: read-out: Ki (M) Factor VII
T7 construct: human Factor VIIa (FVIIa)
T7 sequence (P08709 61-212 limits assumed): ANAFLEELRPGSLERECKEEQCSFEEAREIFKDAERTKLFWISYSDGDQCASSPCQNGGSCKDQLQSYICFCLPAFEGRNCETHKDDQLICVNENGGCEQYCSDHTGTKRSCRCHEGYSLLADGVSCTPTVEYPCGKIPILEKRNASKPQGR
T7 sequence (P08709 213-466 limits assumed): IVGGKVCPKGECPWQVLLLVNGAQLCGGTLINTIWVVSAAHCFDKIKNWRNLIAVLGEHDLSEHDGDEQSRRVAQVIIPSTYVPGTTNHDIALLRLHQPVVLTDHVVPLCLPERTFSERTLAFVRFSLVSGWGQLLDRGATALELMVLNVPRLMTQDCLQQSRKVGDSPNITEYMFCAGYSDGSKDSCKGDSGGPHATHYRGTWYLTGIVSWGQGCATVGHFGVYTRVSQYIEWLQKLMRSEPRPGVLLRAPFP
Method: as §2
From this concentration point seven more sequential dilutions were made for the assay.

T1 sequence (P13726 33-295 partner, one chain of several): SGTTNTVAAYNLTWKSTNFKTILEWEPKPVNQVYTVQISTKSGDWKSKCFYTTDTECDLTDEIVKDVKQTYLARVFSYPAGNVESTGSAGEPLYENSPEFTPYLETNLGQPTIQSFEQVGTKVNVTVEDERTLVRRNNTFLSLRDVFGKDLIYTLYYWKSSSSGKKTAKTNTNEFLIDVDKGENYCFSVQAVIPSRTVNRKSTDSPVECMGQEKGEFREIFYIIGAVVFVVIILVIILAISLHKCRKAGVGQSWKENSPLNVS

Q: With `N=C(N)NCCC[C@H](NC(=O)[C@@H]1CCN2CC[C@@](N)(Cc3ccccc3)C(=O)N12)C(=O)CCl` [Structure (13b)] as the compound, how does the pIC50 (FVIIa and TF complex) read?
A: 6.85

Q: And the pIC50 [1]?
A: 6.28

Q: And the pIC50 (urokinase [2])?
A: 6.03

Q: What about the pIC50 (Plasmin [3]) of the same compound?
A: 6.01

Q: And the pIC50 (bovine factor Xa)?
A: 6.41

Q: And the pIC50 (thrombin [4])?
A: 8.92

Q: And the pIC50 (bovine trypsin)?
A: 6.80

Q: And the pIC50 [5]?
A: 6.20

Q: How did the pKi (thrombin [6]) turn out when `CC/C=C\CCC1C=CC(C(=O)NC(CCCCN)C(=O)C(=O)NCCc2ccc(C(N)=O)cc2)n2c(=O)n(CC(c3ccccc3)c3ccccc3)c(=O)n21` (centres unmarked) [compound 106] was run?
A: > 8.00

Q: Which Ki (Factor XI) does the source give for `N=C(N)NCCCC(NC(=O)C1CCN2CCC(N)(Cc3ccccc3)C(=O)N12)C(=O)c1nc2ccccc2s1` (centres unmarked) [Structure (20b)] here?
A: 2.7e-08 M

Q: And the Ki (urokinase [7])?
A: 600 nM

Q: And the Ki (Plasmin [8])?
A: 4.15e-07 M

Q: And the Ki (t-PA)?
A: 4.95e-07 M

Q: And the Ki (factor VII)?
A: 2.7e-07 M
